We go through 41 molecules from patent publication US6448052B2, “Carbonyl reductase enzyme and methods for its use” (Kaneka Corporation, priority 1997, dated 2002).

To fix the notation:
B1: CRD enzyme: carbonyl reductase purified from Candida magnoliae IFO 0705, amino acid sequence SEQ ID NO:1 (protein, listed as Candida magnoliae)
chain: MAKNFSNVEYPAPPPAHTKNESLQVLDLFKLNGKVASITGSSSGIGYALAEAFAQVGADVAIWYNSHDATGKAEALAKKYGVKVKAYKANVSSSDAVKQTIEQQIKDFGHLDIVVANAGIPWTKGAYIDQDDDKHFDQVVDVDLKGVGYVAKHAGRHFRERFEKEGKKGALVFTASMSGHIVNVPQFQATYNAAKAGVRHFAKSLAVEFAPFARVNSVSPGYINTEISDFVPQETQNKWWSLVPLGRGGETAELVGAYLFLASDAGSYATGTDIIVDGGYTLP

The first series concerns CRD enzyme. The series can be described thus: Substrate specificity of the purified CRD enzyme (decrease in NADPH absorption at 340 nm). Format: biochemical, Candida magnoliae IFO 0705. The conditions noted are these: NADPH as coenzyme. Here is the method: First, the above yeast is cultured in an appropriate medium, and microbe bodies are collected from the resultant culture by centrifugation. The microbe bodies are destroyed by Dyno mill (manufactured by Dyno-Mill), for example, and centrifuged to remove cell debris and thus obtain a cell-free extract. The cell-free extract is then subjected to a processing, such as salting-out (e.g., ammonium sulfate precipitation and sodium phosphate precipitation), solvent precipitation (a protein fractionation precipitation method using acetone, ethanol, or the like), dialysis, gel filtration, ion exchange, column chromatography such as a reverse phase chromatography, and ultrafiltration, alone or in combination, to purify the enzyme. The CRD enzyme activity can be determined by measuring a reduction in the absorption at 340 nm at 30° C., for a 100 mM phosphate buffer (pH 6.5) with 1 mM ethyl 4-chloroacetoacetate as a substrate, 0.1 mM NADPH as a coenzyme, and the enzyme added thereto, or a 200 mM phosphate buffer (pH 7.0) with 0.2 mM ethyl 4-chloroacetoacetate as a substrate and 0.32 mM NADPH as a coenzyme added thereto. Under these reaction conditions, oxidation of 1 μmol NADPH into NADP in one minute is defined as one unit of enzymatic activity.
The enzyme activity was determined by, basically, allowing 3 ml of a reaction solution including 0.2 mM ethyl 4-chloroacetoacetate as a substrate, 0.32 mM NADPH as a coenzyme, and 0.1 ml of an enzyme solution in a 200 mM phosphate buffer (pH 7.0) to react at 30° C. for one minute and measuring a reduction in the absorption at 340 nm.
The enzyme according to the present invention was reacted using various carbonyl compounds shown in Table 1 below as a substrate under the same conditions as those used for ethyl 4-chloroacetoacetate.
Consider `CCOC(=O)CC(C)=O` [Ethyl acetoacetate], for which the “substrate specificity (activity of the enzyme to the substrate, in words)” value is “substantially no activity”. On the same count and under the same terms, for `CCOC(=O)CC(=O)CCl` [ethyl 4-chloroacetoacetate] the value was “strong activity”.

The same series, now with this note: Substrate 0.2 mM; 0.32 mM NADPH, 200 mM phosphate buffer pH 7.0, 30° C.; ethyl 4-chloroacetoacetate = 100.
Take `CCCCCCCCOC(=O)CC(=O)CCl` [octyl 4-chloroacetoacetate]: the “Relative activity (%)” value came to 36%. On the same count and under the same terms, the figure for `CC(=O)C(C)=O` [Diacetyl] is 19%; for `O=Cc1ccc([N+](=O)[O-])cc1` [p-nitrobenzaldehyde] it is 0%. For the molecule `CCOC(=O)C(Cl)C(C)=O` (stereo not shown) [ethyl 2-chloroacetoacetate], the “Relative activity (%)” value stood at 95%.

Take `COC(=O)C(Cl)C(C)=O` (stereo not shown) [methyl 2-chloroacetoacetate]: the “Relative activity (%)” value is on record as 11%. The same measure, in the same setting: for `O=Cc1ccc(Cl)cc1` [p-chlorobenzaldehyde] the value was 0%. Take `O=Cc1ccccc1` [Benzaldehyde]: the “Relative activity (%)” value turned out to be 0%. The same measure, in the same setting: for `CC(=O)C=O` [Methyl glyoxal] the value was 0%; for `O=CCCl` [Chloroacetoaldehyde], 0%. Regarding `CC12CCC(C(=O)C1=O)C2(C)C` (stereo not shown) [Camphor quinone], the “Relative activity (%)” value stood at 0%. For the molecule `COC(=O)CC(=O)CCl` [methyl 4-chloroacetoacetate], the “Relative activity (%)” value stood at 11%.

Take `O=Cc1cccc(Cl)c1` [m-chlorobenzaldehyde]: the “Relative activity (%)” value turned out to be 0%. As for `O=Cc1cccnc1` [Nicotinaldehyde], the “Relative activity (%)” value came to 0%. For `O=Cc1ccccc1[N+](=O)[O-]` [o-nitrobenzaldehyde], the “Relative activity (%)” value was 0%. On the same count and under the same terms, for `O=Cc1ccncc1` [isonicotinaldehyde] the value was 0%; for `O=Cc1cccc([N+](=O)[O-])c1` [m-nitrobenzaldehyde], 0%; for `CCOC(=O)CC(C)=O` [Ethyl acetoacetate], 0%. `O=CC=O` [Glyoxal]: the “Relative activity (%)” value came to 0%. Still for that read-out and setting: the figure for `O=Cc1ccccc1Cl` [o-chlorobenzaldehyde] is 0%; for `CCOC(=O)CC(=O)CCl` [ethyl 4-chloroacetoacetate] it is 100%.

The next series deals with CRD enzyme. The series can be described thus: Effect of metal ions and inhibitors on CRD enzyme activity, ethyl 4-chloroacetoacetate as substrate. In kind it is biochemical, Candida magnoliae IFO 0705.
Conditions: not given
Turning to `[Cl-].[Cl-].[Co+2]` [CoCl2], the “Relative activity (%)” value worked out at 89%. On to `O=c1c(O)c(-c2ccc(O)c(O)c2)oc2cc(O)cc(O)c12` [Quercetin], for which the “inhibitor (enzyme inhibited, in words)” value is listed as “inhibited”. In the case of `O=C(O)CI` [Iodoacetic acid], the “Relative activity (%)” value is reported as 100%.

In the case of `[Cl][Hg][Cl]` [HgCl2], the “inhibitor (enzyme inhibited, in words)” value is “inhibited”.

The series is the same for the next values; noted with them: Concentration of addition 0.01 mM; non-added = 100.
Consider `O=c1c(O)c(-c2ccc(O)c(O)c2)oc2cc(O)cc(O)c12` [Quercetin], for which the “Relative activity (%)” value is listed as 84%.

Staying with this series, now noted: Concentration of addition 0.05 mM; non-added = 100.
`O=C(O)c1cc(SSc2ccc([N+](=O)[O-])c(C(=O)O)c2)ccc1[N+](=O)[O-]` [DTNB]: the “Relative activity (%)” value amounted to 100%.

Staying with this series, now noted: Concentration of addition 0.1 mM; non-added = 100.
Regarding `O=c1oc2ccccc2c(O)c1Cc1c(O)c2ccccc2oc1=O` [Dicoumarol], the “Relative activity (%)” value was determined as 97%.

As to `O=c1c(O)c(-c2ccc(O)c(O)c2)oc2cc(O)cc(O)c12` [Quercetin], the “Relative activity (%)” value was 0%.

For `O=[N+]([O-])c1ccc(O)c([N+](=O)[O-])c1` [2,4-dinitrophenol], the “Relative activity (%)” value was determined as 86%. The same measure, in the same setting: the figure for `[Cl][Hg][Cl]` [HgCl2] is 49%.

Still in this series, the particulars now being: Concentration of addition 1 mM; non-added = 100.
In the case of `O=S(=O)(F)Cc1ccccc1` [PMSF], the “Relative activity (%)” value was determined as 93%. With `O=S(=O)([O-])[O-].[Cu+2]` [CuSO4], the “Relative activity (%)” value was determined as 85%.

Consider `[Cl][Cd][Cl]` [CdCl2], for which the “Relative activity (%)” value is reported as 91%. The same measure, in the same setting: the figure for `O=C(O)CN(CCN(CC(=O)O)CC(=O)O)CC(=O)O` [EDTA] is 95%; for `CCN1C(=O)C=CC1=O` [NEM] it is 105%; for `[Cl][Sn][Cl]` [SnCl2] it is 77%.

As to `O=C(O)c1cc[c]([Hg][Cl])cc1` [p-CMB], the “Relative activity (%)” value was found to be 88%. `O=S(=O)([O-])[O-].[Zn+2]` [ZnSO4]: the “Relative activity (%)” value amounted to 97%.

For the molecule `[Cl-].[Cl-].[Mg+2]` [MgCl2], the “Relative activity (%)” value stood at 83%. In the case of `NNc1ccccc1` [Phenylhydrazine], the “Relative activity (%)” value was 97%. Take `[Cl][Pb][Cl]` [PbCl2]: the “Relative activity (%)” value stood at 86%.

Test system in another series: not given
Assay: not given
The conditions noted are these: 0.5 h, pH 7. In kind it is physicochemical, Candida magnoliae IFO 0705. Here is the method: The expression that an enzyme is “stable” as used herein means that after being processed at pH 7.0 at 40° C. for 30 minutes the enzyme sustains an activity of 90% or more of that before the processing.
After the enzyme according to the present invention was treated at pH 7.0at 40° C. for 30 minutes, the activity of the enzyme was measured using ethyl 4-chloroacetoacetate as a substrate. As a result, the activity of 90% of that before the treatment remained.
As to B1, the “heat stability: activity remaining relative to before the treatment” value was 90%.

The next series relates to CRD enzyme. Nature of the series: Organic solvent resistance of the CRD enzyme. Format: biochemical, Candida magnoliae IFO 0705. Particulars: equivalent amount of solvent added to phosphate buffer (pH 7.0), shaken at 28° C. for 30 minutes.
For the molecule `CCOC(C)=O` [ethyl acetate], the “residual activity of the enzyme in the aqueous phase” value is recorded as 72%. In the case of `CCCCOC(C)=O` [butyl acetate], the “residual activity of the enzyme in the aqueous phase” value came to 85%.
